Experimental data: patent US5075338A (priority 1986, dated 1991)

What was measured:
[1] = system: noradrenaline release; conditions: background; cited from earlier work
[2] = system: neuronal uptake of indirectly acting endogenic sympathomimetic amines; conditions: background; cited from earlier work
[3] = system: nictitating membrane; assay: noradrenaline releasing effect in cats (in vivo), contraction of the nictitating membrane; conditions: anesthetized cat, PEA i.p.
[4] = psychostimulant effect in rats: modified jumping test; assay type: in vivo, rat
[5] = psychostimulant effect in rats: shuttle-box test; assay type: in vivo, rat
[6] = effect exerted on food intake, in rats; assay type: in vivo, rat

Row | Compound | noradrenaline releasing effect [1] | inhibition of neuronal uptake of indirectly acting endogenic sympathomimetic amines [2] | contraction of the nictitating membrane [3] | learning and retention ([4]; larger doses, above 3 mg/kg) | learning and retention ([4]; small doses, up to 1-2 mg/kg) | intersignal reaction ([5]; 1 mg/kg s.c. daily) | acquisition of a conditioned reaction and its retention ([5]; 1 mg/kg s.c. daily, five days of observation) | general motility ([5]; 5-10 mg/kg) | food intake ([6]; rats fasted for 96 hours, 2-5 mg/kg, for 3-4 hours) | anorectic effect ([6]; well-fed satiated rats, 1 mg/kg)
1 | CN[C@@H](C)Cc1ccccc1 [methamphetamine] | strong and long lasting | inhibits the neuronal uptake of indirectly acting endogenic sympathomimetic amines to a significant extent | contraction of long duration |  |  |  |  |  |  | 
2 | CC(N)Cc1ccccc1 (stereo not drawn) [amphetamine, reference compound] | strong and long lasting |  | contraction of long duration | deteriorate | improve | disproportionately high intersignal reaction | significantly increases the acquizition of a conditioned reaction and its retention | extremely high general motility increasing effect | completely inhibited | exhibits an anorectic effect
